Data set [1] deals with Substance-P receptor (Homo sapiens, UniProt P25103). Nature of the data set: Concentration required for displacement of [125I]-labeled substance P from cloned hNK1 receptor expressed in CHO cells. The data set is classed as cell-based. (In general: In a radioligand displacement assay an active substance lowers the binding of a labelled ligand.)
Data set [2] relates to Gerbillinae. Put plainly: Percent inhibition of gerbil foot-tapping at 1 mg/kg, iv after pre-treatment time of 2 hr. The class given is functional.
Data set [3] is filed under the species Rattus norvegicus. Nature of the data set: Systemic AUC was determined by pharmacokinetic study conducted in portal vein cannulated rats. The data set is classed as ADME, organism-based. To be noted: in vivo.
For data set [4], the system named is Gerbillinae. Put plainly: Percent inhibition of foot-tapping at 1 mg/kg, iv after pre-treatment time of 2 hr […]. The class given is functional.
Data set [5] concerns Gerbillinae. Put plainly: Percent inhibition of gerbil foot-tapping at 1 mg/kg, iv immediately following pre-treatment […]. The data set is classed as functional.
The species named for data set [6] is Rattus norvegicus. Put plainly: Hepatic portal AUC was determined by pharmacokinetic study conducted in portal vein cannulated rats. The class given is ADME, organism-based. To be noted: in vivo.
A short description of data set [7]: Percent oral bioavailability determined in rats. The following applies: rat, in vivo, read-out: Bioavailabiility. The class given is ADME, organism-based.
A short description of data set [8]: Plasma clearance rate determined in rats. To be noted: rat, read-out: Clearance rate. The data set is classed as ADME, organism-based.
Data set [9] relates to Gerbillinae. Nature of the data set: In vivo inhibitory dose determined in the gerbil foot-tapping assay after intravenous administration. The data set is classed as functional. To be noted: read-out: ID50 (the source's name).

Each structure is given as a SMILES string.

Usually IC50 stands for the concentration that gives 50% inhibition. Low readings indicate greater potency, high ones weaker potency. Usually inhibition in vivo stands for the change of the read-out against control, counted positive when it falls. What is called AUC is concentration integrated over time. Lower therefore signals less exposure. The clearance is a measure of how efficiently the substance is removed, as volume per time.

Substance-P receptor, sequence (P25103 whole entry): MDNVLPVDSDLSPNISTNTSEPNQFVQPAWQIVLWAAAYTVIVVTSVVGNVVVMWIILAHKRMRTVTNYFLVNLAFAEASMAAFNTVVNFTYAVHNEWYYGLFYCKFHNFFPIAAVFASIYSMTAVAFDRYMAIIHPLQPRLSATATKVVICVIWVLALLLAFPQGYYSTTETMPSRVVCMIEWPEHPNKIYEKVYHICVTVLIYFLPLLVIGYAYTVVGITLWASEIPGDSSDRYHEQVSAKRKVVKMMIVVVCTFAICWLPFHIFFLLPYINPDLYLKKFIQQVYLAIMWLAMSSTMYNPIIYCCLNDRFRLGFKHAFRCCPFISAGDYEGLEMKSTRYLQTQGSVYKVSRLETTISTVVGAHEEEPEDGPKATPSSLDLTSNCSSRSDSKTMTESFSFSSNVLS

As to `Cn1c(-c2ccc(Cl)cc2)c(CCC(=O)N2CCC(O)(Cc3ccccc3)CC2)c2cc(N3CCCCC3)ccc21`, the IC50 in [1] was found to be 3.3 nM.
In the case of `Cn1c(-c2ccc(Cl)cc2)c(CCC(=O)N2CCC(O)(Cc3ccccc3)CC2)c2cc(-c3ccccn3)ccc21`, in [1], the IC50 amounted to 1.7 nM.
On the same count and under the same terms, the same measure for `Cn1c(-c2ccc(Cl)cc2)c(CCC(=O)N2CCC(O)(Cc3ccccc3)CC2)c2cc(-c3ccncc3)ccc21`: 5.5 nM.
Still for that read-out and setting: the same measure for `Cn1c(-c2ccc(Cl)cc2)c(CCC(=O)N2CCC(O)(Cc3ccccc3)CC2)c2cnccc21`: 41 nM; for `C=Cc1ccc2c(c1)c(CCC(=O)N1CCC(O)(Cc3ccccc3)CC1)c(-c1ccc(Cl)cc1)n2C`: 0.27 nM; for `COc1ccccc1N1CCN(C(=O)CCc2c(-c3ccc(Cl)cc3)[nH]c3ccc(OC(F)(F)F)cc23)CC1`: 8.9 nM.
Same read-out and setting: the same measure for `COc1ccccc1N1CCN(C(=O)CCc2c(-c3ccc(Cl)cc3)[nH]c3cccc(Cl)c23)CC1`: 950 nM.
With `CC(=O)c1ccc2c(c1)c(CCC(=O)N1CCC(O)(Cc3ccccc3)CC1)c(-c1ccc(Cl)cc1)n2C`, in data set [2], the inhibition in vivo at 1 mg/kg is 14%. The compound further showed an IC50 in data set [1] of 0.19 nM.
`Cn1c(-c2ccc(Cl)cc2)c(CCC(=O)N2CCC(O)(Cc3ccccc3)CC2)c2cc(N3CCOCC3)ccc21` gave an IC50 in data set [1] of 6.3 nM. In other words, the single-digit nanomolar range.
Same read-out and setting: with `Cn1c(-c2ccc(Cl)cc2)c(CCC(=O)N2CCC(O)(Cc3ccccc3)CC2)c2cc(-n3cccc3)ccc21` the figure was 2.3 nM; with `O=C(CCc1c(-c2ccc(Cl)cc2)nc2ccc(Cl)cn12)N1CCC(O)(Cc2ccccc2)CC1`, 0.78 nM.
On the same count and under the same terms, with `COc1ccccc1N1CCN(C(=O)CCc2c(-c3ccc(Cl)cc3)[nH]c3ccccc23)CC1` the figure was 31 nM.
`COc1ccccc1N1CCN(C(=O)CCc2c(-c3ccccc3)[nH]c3ccc(F)cc23)CC1` had a half-maximal inhibitory concentration (IC50) in data set [1] of 87 nM.
Still for that read-out and setting: the same measure for `Cn1c(-c2ccc(Cl)cc2)c(CCC(=O)N2CCC(O)(Cc3ccccc3)CC2)c2nc(Cl)ccc21`: 2.6 nM; for `COc1ccccc1N1CCN(C(=O)CCc2c(-c3ccc(Cl)cc3)[nH]c3cc(Cl)ccc23)CC1`: 4.9 nM.
Same read-out and setting: with `COc1ccccc1N1CCN(C(=O)CCc2c(-c3ccc(Br)cc3)[nH]c3ccc(C)cc23)CC1` the figure was 1 nM; with `COc1ccccc1N1CCN(C(=O)CCc2c(-c3ccc(Cl)cc3)[nH]c3c(Cl)cc(Cl)cc23)CC1`, 14 nM; with `COc1ccccc1N1CCN(C(=O)CCc2c(-c3ccc(Cl)cc3)[nH]c3ccc(Cl)cc23)CC1`, 0.89 nM.
On the same count and under the same terms, the same measure for `Cn1c(-c2ccc(Cl)cc2)c(CCC(=O)N2CCC(O)(Cc3ccccc3)CC2)c2cc(-c3cccnc3)ccc21`: 5.5 nM.
For the compound `Cn1c(-c2ccc(Cl)cc2)c(CCC(=O)N2CCC(O)(Cc3ccccc3)CC2)c2cc(Cl)cnc21`, the AUC was determined as 8 ng·h/mL in data set [3] and 96.8 ng·h/mL in data set [6]. Besides, the results for the inhibition in vivo at 1 mg/kg in data set [4] and in [5] were 10% and 100%, respectively. The compound further came in with an IC50 in [1] of 0.15 nM.
`COc1ccccc1N1CCN(C(=O)CCc2c(-c3ccccc3)[nH]c3ccc(Cl)cc23)CC1`: in data set [1], the half-maximal inhibitory concentration (IC50) worked out at 5.6 nM.
For the compound `Cn1c(-c2ccc(Cl)cc2)c(CCC(=O)N2CCC(O)(Cc3ccccc3)CC2)c2cc(Cl)ncc21`, the IC50 in data set [1] turned out to be 0.22 nM.
Regarding `Cn1c(-c2ccc(Cl)cc2)c(CCC(=O)N2CCC(O)(Cc3ccccc3)CC2)c2cc(Cl)ccc21`, the bioavailability in data set [7] was found to be 2.3%. Further, the AUC was below 4 ng·h/mL in data set [3] and 24.7 ng·h/mL in data set [6]. The clearance in data set [8] came to 31 mL/min/kg. The ED50 in data set [9] worked out at 0.3 mg/kg. In addition, the IC50 in data set [1] was found to be 0.16 nM.
`COc1ccccc1N1CCN(C(=O)CCc2c(-c3ccc(Cl)cc3)[nH]c3cc(Cl)cc(Cl)c23)CC1` showed an IC50 in data set [1] of 570 nM. That is a sub-micromolar value.
Still for that read-out and setting: the same measure for `Cn1c(-c2ccc(Cl)cc2)c(CCC(=O)N2CCC(O)(Cc3ccccc3)CC2)c2cc(-c3ccco3)ccc21`: 0.79 nM.
On the same count and under the same terms, the same measure for `COc1ccccc1N1CCN(C(=O)CCc2c(-c3ccc(Cl)cc3)[nH]c3ccc(C)cc23)CC1`: 0.6 nM; for `Cn1c(-c2ccc(Cl)cc2)c(CCC(=O)N2CCC(O)(Cc3ccccc3)CC2)c2cc(Br)ccc21`: 0.22 nM.
